target: JAK1 (Homo sapiens (Human), UniProt P23458); experiment: Analysis of JAK1 activity inhibition ability (ADP-Glo Kinase Assay); type: biochemical; details: JAK1 enzyme, ADP-Glo luminescence, ATP 250 uM, IRS-itide substrate, 30° C. 40 minutes; read-out: IC50
Summary of the method: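 JAK1 enzyme, IRS-itide substrate (40 ng/mL) and 250 uM ATP, both as prepared in kinase buffer (Tris-HCl pH 7.5, MgCl2, BSA, DTT), reacted with compound 40 min at 30 °C. ADP formed was detected by ADP-Glo luminescence; IC50 is the concentration giving 50% inhibition versus control.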

Chain of JAK1 (P23458 whole entry): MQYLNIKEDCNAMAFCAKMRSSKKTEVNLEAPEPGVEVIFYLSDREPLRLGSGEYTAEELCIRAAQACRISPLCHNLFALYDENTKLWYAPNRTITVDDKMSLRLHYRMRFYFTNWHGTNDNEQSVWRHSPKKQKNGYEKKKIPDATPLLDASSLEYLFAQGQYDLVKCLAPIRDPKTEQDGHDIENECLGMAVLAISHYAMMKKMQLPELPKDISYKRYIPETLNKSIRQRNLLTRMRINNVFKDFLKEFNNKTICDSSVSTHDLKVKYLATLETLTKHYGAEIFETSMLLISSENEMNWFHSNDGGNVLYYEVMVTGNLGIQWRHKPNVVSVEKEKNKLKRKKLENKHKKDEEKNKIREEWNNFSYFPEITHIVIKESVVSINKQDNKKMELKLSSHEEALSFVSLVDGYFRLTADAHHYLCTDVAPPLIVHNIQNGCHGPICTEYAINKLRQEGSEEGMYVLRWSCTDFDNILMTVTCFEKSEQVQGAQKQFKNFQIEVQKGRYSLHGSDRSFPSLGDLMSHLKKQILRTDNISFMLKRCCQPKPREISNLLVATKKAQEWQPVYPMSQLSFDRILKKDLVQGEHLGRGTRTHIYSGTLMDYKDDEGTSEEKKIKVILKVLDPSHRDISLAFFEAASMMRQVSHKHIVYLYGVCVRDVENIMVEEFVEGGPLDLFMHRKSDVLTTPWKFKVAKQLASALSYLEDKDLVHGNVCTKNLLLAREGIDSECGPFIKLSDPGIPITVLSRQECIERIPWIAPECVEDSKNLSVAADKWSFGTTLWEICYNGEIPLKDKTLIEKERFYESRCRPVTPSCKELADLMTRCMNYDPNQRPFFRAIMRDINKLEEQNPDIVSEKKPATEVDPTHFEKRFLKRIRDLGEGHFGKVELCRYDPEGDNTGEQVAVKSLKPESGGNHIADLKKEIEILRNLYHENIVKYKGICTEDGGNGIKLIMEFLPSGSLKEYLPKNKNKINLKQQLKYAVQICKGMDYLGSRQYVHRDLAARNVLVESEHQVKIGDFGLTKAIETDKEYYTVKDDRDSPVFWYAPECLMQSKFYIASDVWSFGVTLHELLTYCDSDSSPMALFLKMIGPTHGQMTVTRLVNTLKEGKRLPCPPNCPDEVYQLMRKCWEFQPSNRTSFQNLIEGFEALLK

First: N#CCC(=O)N1[C@@H]2CC[C@H]1C=C(c1cc(NC(=O)C3CC3)nc3[nH]ccc13)C2 [Example 262, N-(4-((1S,5R)-8-(2-cyanoacetyl)-8-azabicyclo[3.2.1]oct-2-en-3-yl)-1H-pyrrolo[2,3-b]pyridin-6-yl)cyclopropanecarboxamide]
Second: CC1CN(C(=O)CC#N)CC=C1c1cc(NC(=O)C2CC2)nc2[nH]ccc12 (centres unmarked) [Example 283, N-(4-(1-(2-cyanoacetyl)-3-methyl-1,2,3,6-tetrahydropyridin-4-yl)-1H-pyrrolo[2,3-b]pyridin-6-yl)cyclopropanecarboxamide]
The IC50 of the first is higher: 0.02 to 0.2 µM for the first, < 0.02 µM for the second.

`O=C(Nc1cc(C2=CCN(C(=O)C3CC3(F)F)CC2)c2cc[nH]c2n1)C1CC1` (centres unmarked) [Example 263, N-(4-(1-(2,2-difluorocyclopropane-1-carbonyl)-1,2,3,6-tetrahydropyridin-4-yl)-1H-pyrrolo[2,3-b]pyridin-6-yl)cyclopropanecarboxamide] and `O=C(Nc1cc(C2=CCN(C(=O)C3CC3F)CC2)c2cc[nH]c2n1)C1CC1` (centres unmarked) [Example 274, N-(4-(1-(2-fluorocyclopropane-1-carbonyl)-1,2,3,6-tetrahydropyridin-4-yl)-1H-pyrrolo[2,3-b]pyridin-6-yl)cyclopropanecarboxamide] cannot be ordered by IC50: < 0.02 µM for the first, < 0.02 µM for the second.

First: O=C(Nc1cc(C2=CCN(C(=O)C3CC3)CC2)c2cc[nH]c2n1)C1CC1 [Example 264, N-(4-(1-(cyclopropanecarbonyl)-1,2,3,6-tetrahydropyridin-4-yl)-1H-pyrrolo[2,3-b]pyridin-6-yl)cyclopropanecarboxamide]
Second: CN1CCC(C(=O)N2CC=C(c3cc(NC(=O)C4CC4)nc4[nH]ccc34)CC2)C1 (centres unmarked) [Example 280, N-(4-(1-(1-methylpyrrolidine-3-carbonyl)-1,2,3,6-tetrahydropyridin-4-yl)-1H-pyrrolo[2,3-b]pyridin-6-yl)cyclopropanecarboxamide]
The IC50 of the first is lower: 0.02 to 0.2 µM for the first, > 0.2 µM for the second. The first is the more potent here.

First: N#CCCCC(=O)N1CC=C(c2cc(NC(=O)C3CC3)nc3[nH]ccc23)CC1 [Example 265, N-(4-(1-(4-cyanobutanoyl)-1,2,3,6-tetrahydropyridin-4-yl)-1H-pyrrolo[2,3-b]pyridin-6-yl)cyclopropanecarboxamide]
Second: CC1CN(C(=O)CCCC#N)CC=C1c1cc(NC(=O)C2CC2)nc2[nH]ccc12 (centres unmarked) [Example 285, N-(4-(1-(4-cyanobutanoyl)-3-methyl-1,2,3,6-tetrahydropyridin-4-yl)-1H-pyrrolo[2,3-b]pyridin-6-yl)cyclopropanecarboxamide]
The IC50 of the first is lower: < 0.02 µM for the first, 0.02 to 0.2 µM for the second.

First: C=CC(=O)N1CC=C(c2cc(NC(=O)C3CC3)nc3[nH]ccc23)CC1 [Example 266, N-(4-(1-acryloyl-1,2,3,6-tetrahydropyridin-4-yl)-1H-pyrrolo[2,3-b]pyridin-6-yl)cyclopropanecarboxamide]
Second: C=CCC(=O)N1CC=C(c2cc(NC(=O)C3CC3)nc3[nH]ccc23)CC1 [Example 270, N-(4-(1-(but-3-enoyl)-1,2,3,6-tetrahydropyridin-4-yl)-1H-pyrrolo[2,3-b]pyridin-6-yl)cyclopropanecarboxamide]
The IC50 of the first is lower: 0.02 to 0.2 µM for the first, > 0.2 µM for the second.

First: N#CC1(CC(=O)N2CC=C(c3cc(NC(=O)C4CC4)nc4[nH]ccc34)CC2)CC1 [Example 268, N-(4-(1-(2-(1-cyanocyclopropyl)acetyl)-1,2,3,6-tetrahydropyridin-4-yl)-1H-pyrrolo[2,3-b]pyridin-6-yl)cyclopropanecarboxamide]
Second: CC(C#N)C(=O)N1CC=C(c2cc(NC(=O)C3CC3)nc3[nH]ccc23)CC1 (centres unmarked) [Example 269, N-(4-(1-(2-cyanopropanoyl)-1,2,3,6-tetrahydropyridin-4-yl)-1H-pyrrolo[2,3-b]pyridin-6-yl)cyclopropanecarboxamide]
The IC50 of the first is higher: 0.02 to 0.2 µM for the first, < 0.02 µM for the second.

Compared with `CCC(C#N)C(=O)N1CC=C(c2cc(NC(=O)C3CC3)nc3[nH]ccc23)CC1` (centres unmarked) [Example 271, N-(4-(1-(2-cyanobutanoyl)-1,2,3,6-tetrahydropyridin-4-yl)-1H-pyrrolo[2,3-b]pyridin-6-yl)cyclopropanecarboxamide], `CN(C)CC(=O)N1CC=C(c2cc(NC(=O)C3CC3)nc3[nH]ccc23)CC1` [Example 281, N-(4-(1-(dimethylglycyl)-1,2,3,6-tetrahydropyridin-4-yl)-1H-pyrrolo[2,3-b]pyridin-6-yl)cyclopropanecarboxamide] is higher in IC50: 0.02 to 0.2 µM for the first, > 0.2 µM for the second.

`O=C(Nc1cc(C2=CCN(C(=O)C(F)(F)F)CC2)c2cc[nH]c2n1)C1CC1` [Example 272, N-(4-(1-(2,2,2-trifluoroacetyl)-1,2,3,6-tetrahydropyridin-4-yl)-1H-pyrrolo[2,3-b]pyridin-6-yl)cyclopropanecarboxamide] and `O=C(Nc1cc(C2=CCN(C(=O)C3CC3C(F)(F)F)CC2)c2cc[nH]c2n1)C1CC1` (centres unmarked) [Example 282, N-(4-(1-(2-(trifluoromethyl)cyclopropane-1-carbonyl)-1,2,3,6-tetrahydropyridin-4-yl)-1H-pyrrolo[2,3-b]pyridin-6-yl)cyclopropanecarboxamide] fall in the same range of IC50: 0.02 to 0.2 µM for the first, 0.02 to 0.2 µM for the second.

`CC1CC1C(=O)N1CC=C(c2cc(NC(=O)C3CC3)nc3[nH]ccc23)CC1` (centres unmarked) [Example 273, N-(4-(1-(2-methylcyclopropane-1-carbonyl)-1,2,3,6-tetrahydropyridin-4-yl)-1H-pyrrolo[2,3-b]pyridin-6-yl)cyclopropanecarboxamide] and `O=C(Nc1cc(C2=CCN(C(=O)c3cnoc3)CC2)c2cc[nH]c2n1)C1CC1` [Example 287, N-(4-(1-(isoxazole-4-carbonyl)-1,2,3,6-tetrahydropyridin-4-yl)-1H-pyrrolo[2,3-b]pyridin-6-yl)cyclopropanecarboxamide] fall in the same range of IC50: 0.02 to 0.2 µM for the first, 0.02 to 0.2 µM for the second.

Compared with `N#CCC(=O)N1CC=C(c2cc(NC(=O)C3CC3)[n+]([O-])c3[nH]ccc23)CC1` [Example 275, 4-(1-(2-cyanoacetyl)-1,2,3,6-tetrahydropyridin-4-yl)-6-(cyclopropanecarboxamido)-1H-pyrrolo[2,3-b]pyridine 7-oxide], `Cc1c(NC(=O)C2CC2)nc2[nH]ccc2c1C1=CCN(C(=O)CC#N)CC1` [Example 289, N-(4-(1-(2-cyanoacetyl)-1,2,3,6-tetrahydropyridin-4-yl)-5-methyl-1H-pyrrolo[2,3-b]pyridin-6-yl)cyclopropanecarboxamide] is higher in IC50: < 0.02 µM for the first, > 0.2 µM for the second.

`O=C(Nc1cc(C2=CCN(C(=O)Cc3ccc(F)c(F)c3)CC2)c2cc[nH]c2n1)C1CC1` [Example 276, N-(4-(1-(2-(3,4-difluorophenyl)acetyl)-1,2,3,6-tetrahydropyridin-4-yl)-1H-pyrrolo[2,3-b]pyridin-6-yl)cyclopropanecarboxamide] and `O=C(Nc1cc(C2=CCN(C(=O)c3ccc(F)cc3)CC2)c2cc[nH]c2n1)C1CC1` [Example 279, N-(4-(1-(4-fluorobenzoyl)-1,2,3,6-tetrahydropyridin-4-yl)-1H-pyrrolo[2,3-b]pyridin-6-yl)cyclopropanecarboxamide] fall in the same range of IC50: 0.02 to 0.2 µM for the first, 0.02 to 0.2 µM for the second.

Compared with `O=C(Nc1cc(C2=CCN(C(=O)c3ccncc3)CC2)c2cc[nH]c2n1)C1CC1` [Example 277, N-(4-(1-isonicotinoyl-1,2,3,6-tetrahydropyridin-4-yl)-1H-pyrrolo[2,3-b]pyridin-6-yl)cyclopropanecarboxamide], `O=C(Nc1cc(C2=CCN(C(=O)c3ccoc3)CC2)c2cc[nH]c2n1)C1CC1` [Example 278, N-(4-(1-(furan-3-carbonyl)-1,2,3,6-tetrahydropyridin-4-yl)-1H-pyrrolo[2,3-b]pyridin-6-yl)cyclopropanecarboxamide] is lower in IC50: > 0.2 µM for the first, 0.02 to 0.2 µM for the second.

`CC1CN(C(=O)CCC#N)CC=C1c1cc(NC(=O)C2CC2)nc2[nH]ccc12` (centres unmarked) [Example 284, N-(4-(1-(3-cyanopropanoyl)-3-methyl-1,2,3,6-tetrahydropyridin-4-yl)-1H-pyrrolo[2,3-b]pyridin-6-yl)cyclopropanecarboxamide] and `CCC1CN(C(=O)CC#N)CC=C1c1cc(NC(=O)C2CC2)nc2[nH]ccc12` (centres unmarked) [Example 294, N-(4-(1-(2-cyanoacetyl)-3-ethyl-1,2,3,6-tetrahydropyridin-4-yl)-1H-pyrrolo[2,3-b]pyridin-6-yl)cyclopropanecarboxamide] cannot be ordered by IC50: < 0.02 µM for the first, < 0.02 µM for the second.

`O=C(Nc1cc(C2=CCN(C(=O)c3cnon3)CC2)c2cc[nH]c2n1)C1CC1` [Example 286, N-(4-(1-(1,2,5-oxadiazole-3-carbonyl)-1,2,3,6-tetrahydropyridin-4-yl)-1H-pyrrolo[2,3-b]pyridin-6-yl)cyclopropanecarboxamide] and `O=C(Nc1cc(C2=CCN(C(=O)c3ccno3)CC2)c2cc[nH]c2n1)C1CC1` [Example 288, N-(4-(1-(isoxazole-5-carbonyl)-1,2,3,6-tetrahydropyridin-4-yl)-1H-pyrrolo[2,3-b]pyridin-6-yl)cyclopropanecarboxamide] fall in the same range of IC50: 0.02 to 0.2 µM for the first, 0.02 to 0.2 µM for the second.

Going from `Cc1c(NC(=O)C2CC2)nc2[nH]ccc2c1C1=CCN(C(=O)CC(F)(F)F)CC1` [Example 290, N-(5-methyl-4-(1-(3,3,3-trifluoropropanoyl)-1,2,3,6-tetrahydropyridin-4-yl)-1H-pyrrolo[2,3-b]pyridin-6-yl)cyclopropanecarboxamide] to `O=C(Nc1cc(C2=CCN(C(=O)c3cnsc3)CC2)c2cc[nH]c2n1)C1CC1` [Example 292, N-(4-(1-(isothiazole-4-carbonyl)-1,2,3,6-tetrahydropyridin-4-yl)-1H-pyrrolo[2,3-b]pyridin-6-yl)cyclopropanecarboxamide], the IC50 falls from > 0.2 µM to < 0.02 µM.

First: O=C(Nc1cc(C2=CCN(C(=O)c3cscn3)CC2)c2cc[nH]c2n1)C1CC1 [Example 291, N-(4-(1-(thiazole-4-carbonyl)-1,2,3,6-tetrahydropyridin-4-yl)-1H-pyrrolo[2,3-b]pyridin-6-yl)cyclopropanecarboxamide]
Second: N#Cc1ccc(C(=O)N2CC=C(c3cc(NC(=O)C4CC4)nc4[nH]ccc34)CC2)cc1 [Example 293, N-(4-(1-(4-cyanobenzoyl)-1,2,3,6-tetrahydropyridin-4-yl)-1H-pyrrolo[2,3-b]pyridin-6-yl)cyclopropanecarboxamide]
The IC50 of the first is higher: > 0.2 µM for the first, 0.02 to 0.2 µM for the second.
